Calls of active or inactive are those of the source. The rule behind the calls is not given here.
How the values were obtained:
[1] = Cytotoxicity against African green monkey Vero cells assessed as cell viability at 75 uM after 48 hrs by MTT assay; assay type: cell-based; conditions: chlorocebus sabaeus, read-out: Activity
[2] = molecular target: T1, DNA topoisomerase 1 (Homo sapiens) (UniProt P11387); assay: Inhibition of human topoisomerase-1 assessed as reduction in enzyme-mediated relaxation of negatively supercoiled pRYG DNA at 100 uM incubated for 30 mins by ethidium bromide staining based gel electrophoresis method
T1 sequence (whole entry): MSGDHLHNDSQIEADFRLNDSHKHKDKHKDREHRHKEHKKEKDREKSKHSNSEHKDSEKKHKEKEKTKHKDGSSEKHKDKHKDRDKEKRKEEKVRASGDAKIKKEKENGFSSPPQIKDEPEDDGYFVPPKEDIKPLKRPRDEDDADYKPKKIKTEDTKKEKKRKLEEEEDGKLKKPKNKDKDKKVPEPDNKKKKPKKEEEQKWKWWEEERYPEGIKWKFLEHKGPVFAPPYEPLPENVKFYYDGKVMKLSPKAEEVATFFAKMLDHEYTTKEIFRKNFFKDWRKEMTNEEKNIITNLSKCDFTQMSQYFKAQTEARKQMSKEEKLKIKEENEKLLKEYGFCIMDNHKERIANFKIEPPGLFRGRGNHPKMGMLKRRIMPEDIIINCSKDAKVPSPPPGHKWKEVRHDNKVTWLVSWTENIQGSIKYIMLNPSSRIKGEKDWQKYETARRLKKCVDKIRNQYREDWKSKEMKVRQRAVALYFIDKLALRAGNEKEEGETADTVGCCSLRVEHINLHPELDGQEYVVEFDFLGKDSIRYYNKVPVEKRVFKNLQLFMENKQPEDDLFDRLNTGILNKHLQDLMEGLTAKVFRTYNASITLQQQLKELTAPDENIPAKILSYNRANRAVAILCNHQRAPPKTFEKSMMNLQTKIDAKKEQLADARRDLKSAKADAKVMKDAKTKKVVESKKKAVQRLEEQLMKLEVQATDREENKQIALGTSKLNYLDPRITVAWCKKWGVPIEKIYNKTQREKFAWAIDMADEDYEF

[3] = molecular target: T2, DNA topoisomerase 2-alpha (Homo sapiens, UniProt P11388); assay: Inhibition of etoposide-enhanced human topoisomerase 2alpha-mediated DNA cleavage at 100 to 400 uM pre-incubated for 2 mins with 100 uM etoposide followed by compound addition by ethidium bromide staining based gel electrophoresis method
T2 sequence (P11388 whole entry): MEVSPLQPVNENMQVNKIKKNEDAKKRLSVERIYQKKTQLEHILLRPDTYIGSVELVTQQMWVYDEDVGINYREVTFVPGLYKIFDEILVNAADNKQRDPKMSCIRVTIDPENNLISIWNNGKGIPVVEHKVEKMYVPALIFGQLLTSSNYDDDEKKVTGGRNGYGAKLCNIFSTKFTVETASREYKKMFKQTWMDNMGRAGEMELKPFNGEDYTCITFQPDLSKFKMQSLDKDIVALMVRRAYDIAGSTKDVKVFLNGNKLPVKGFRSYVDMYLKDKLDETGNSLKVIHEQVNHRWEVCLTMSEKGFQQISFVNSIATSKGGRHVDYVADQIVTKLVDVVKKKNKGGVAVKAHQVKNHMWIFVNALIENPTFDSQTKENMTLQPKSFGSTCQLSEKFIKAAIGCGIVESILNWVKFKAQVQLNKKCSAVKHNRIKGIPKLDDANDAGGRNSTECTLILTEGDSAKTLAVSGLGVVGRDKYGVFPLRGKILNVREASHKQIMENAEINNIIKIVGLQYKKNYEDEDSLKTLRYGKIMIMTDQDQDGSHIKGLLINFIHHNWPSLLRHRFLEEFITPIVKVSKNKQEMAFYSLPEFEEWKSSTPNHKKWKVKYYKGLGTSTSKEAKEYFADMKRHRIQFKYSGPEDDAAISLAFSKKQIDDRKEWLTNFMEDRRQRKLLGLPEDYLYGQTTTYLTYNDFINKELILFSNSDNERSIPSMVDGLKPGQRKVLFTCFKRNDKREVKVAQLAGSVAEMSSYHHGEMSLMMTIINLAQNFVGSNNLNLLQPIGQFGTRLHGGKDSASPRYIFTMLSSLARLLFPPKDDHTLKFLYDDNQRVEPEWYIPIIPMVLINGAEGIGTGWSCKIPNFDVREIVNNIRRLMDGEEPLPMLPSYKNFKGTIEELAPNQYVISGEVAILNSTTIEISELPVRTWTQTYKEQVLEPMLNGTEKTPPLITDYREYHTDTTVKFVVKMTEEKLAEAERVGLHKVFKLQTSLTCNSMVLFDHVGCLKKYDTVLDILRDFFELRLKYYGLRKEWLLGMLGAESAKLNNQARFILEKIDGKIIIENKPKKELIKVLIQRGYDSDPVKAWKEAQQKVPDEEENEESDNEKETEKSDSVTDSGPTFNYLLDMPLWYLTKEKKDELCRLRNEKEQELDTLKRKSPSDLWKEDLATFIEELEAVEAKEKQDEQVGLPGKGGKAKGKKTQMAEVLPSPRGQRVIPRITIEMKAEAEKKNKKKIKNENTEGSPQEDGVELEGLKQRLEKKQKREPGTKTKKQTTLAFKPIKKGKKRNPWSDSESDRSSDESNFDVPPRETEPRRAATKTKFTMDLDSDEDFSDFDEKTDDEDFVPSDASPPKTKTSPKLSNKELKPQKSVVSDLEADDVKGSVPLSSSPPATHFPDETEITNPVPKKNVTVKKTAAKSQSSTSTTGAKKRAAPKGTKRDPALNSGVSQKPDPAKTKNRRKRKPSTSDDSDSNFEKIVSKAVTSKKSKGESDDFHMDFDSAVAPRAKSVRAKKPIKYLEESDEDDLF

HEK293 = assay: Cytotoxicity against HEK293 cells assessed as reduction in cell viability after 48 hrs by MTT assay; assay type: functional; conditions: Homo sapiens; for CC50: HEK293, 48 h, read-out: LC50 (the source's name)
Nucleic Acid = assay: Induction of DNA intercalation of Escherichia coli pUC19 DNA at 100 uM by ethidium bromide staining based agarose gel electrophoresis method; assay type: nucleic-acid assay
[4] = molecular target: T2, DNA topoisomerase 2-alpha; assay: Inhibition of etoposide-enhanced human topoisomerase 2alpha-mediated DNA cleavage at 100 to 400 uM incubated for 2 mins with simultaneous addition of 100 uM etoposide by ethidium bromide staining based gel electrophoresis method
[5] = Binding affinity to TOP-FLASH TCF/LEF transcription factor DNA (unknown origin) at 5 to 25 uM incubated for 2 hrs by UV-visible spectrophotometry
[6] = molecular target: T2, DNA topoisomerase 2-alpha; assay: Poisoning activity against human topoisomerase 2alpha assessed as induction of linear DNA formation at 100 uM incubated for 20 mins using small circular supercoiled pHOT DNA substrate by ethidium bromide staining based gel electrophoresis method
[7] = molecular target: T2, DNA topoisomerase 2-alpha; assay: Inhibition of human topoisomerase 2alpha assessed as reduction in enzyme-mediated kinetoplast DNA decatenation at 100 uM incubated for 30 mins by agarose gel electrophoresis method
[8] = molecular target: T2, DNA topoisomerase 2-alpha; assay: Inhibition of etoposide-enhanced human topoisomerase 2alpha-mediated DNA cleavage at 100 to 400 uM pre-incubated for 2 mins before 100 uM etoposide addition by ethidium bromide staining based gel electrophoresis method
[9] = molecular target: T2, DNA topoisomerase 2-alpha; assay: Inhibition of topoisomerase 2alpha in HEK293 cells at 5 to 15 uM incubated for 48 hrs using TOP-FLASH plasmid substrate by ethidium bromide staining based agarose gel electrophoresis method; assay type: cell-based
[10] = molecular target: T2, DNA topoisomerase 2-alpha; assay: Inhibition of human topoisomerase 2alpha ATPase activity assessed as inorganic phosphate release at 100 uM using pUC19 DNA substrate by malachite green reagent based ATPase inhibition assay
[11] = molecular target: T2, DNA topoisomerase 2-alpha; assay: Inhibition of human topoisomerase 2alpha assessed as reduction in enzyme-mediated kinetoplast DNA decatenation incubated for 30 mins by agarose gel electrophoresis method
[12] = molecular target: T2, DNA topoisomerase 2-alpha; assay: Inhibition of human topoisomerase 2alpha assessed as reduction in enzyme-mediated relaxation of negatively supercoiled pRYG DNA at 100 uM incubated for 30 mins by ethidium bromide staining based gel electrophoresis method
[13] = molecular target: T2, DNA topoisomerase 2-alpha; assay: Inhibition of etoposide-enhanced human topoisomerase 2alpha-mediated DNA cleavage at 100 to 400 uM incubated for 2 mins in presence of 100 uM etoposide by ethidium bromide staining based gel electrophoresis method
[14] = molecular target: T2, DNA topoisomerase 2-alpha; conditions: HEK293, 45 uM
Description: Inhibition of topoisomerase 2alpha in HEK293 cells at 45 uM incubated for 48 hrs using TOP-FLASH plasmid substrate by ethidium bromide staining based agarose gel electrophoresis method

[15] = Cytotoxicity against African green monkey Vero cells assessed as reduction in cell viability after 48 hrs by MTT assay; assay type: cell-based; conditions: chlorocebus sabaeus, read-out: LC50

Structure (SMILES) | viability at 48 h, 75 µM [1] | inhibition [2] | Activity (HEK293) | CC50 (HEK293) | Activity [6] | inhibition [7] | inhibition [12] | also measured
CC(C)(C)Nc1c(-c2ccc(Cl)cc2)nc2ccc(-c3ccccc3)cn12 | > 30% | inactive | Dose-dependent effect | 10 µM | inactive | Active | Active | inhibition [3]: Active; Activity (Nucleic Acid): inactive; inhibition [4]: Active; Activity [5]: inactive; inhibition [8]: Dose-dependent effect; inhibition [9]: Active; inhibition [10]: Active; IC50 [11]: 55.4 µM
CC(C)(C)Nc1c(-c2ccc(-c3ccc(Cl)cc3)cc2)nc2ccccn12 | – | – | – | – | – | inactive | inactive | –
CC(C)(C)Nc1c(-c2ccc(C(=O)O)cc2)nc2ccccn12 | – | – | – | – | – | – | – | inhibition [13]: inactive
CC(C)(C)Nc1c(-c2ccc(-c3ccc(F)cc3)cc2)nc2cnccn12 | – | – | – | – | – | inactive | inactive | –
Cc1ccc(-c2ccc3nc(-c4ccc(Cl)cc4)c(NC(C)(C)C)n3c2)cc1 | > 30% | inactive | Dose-dependent effect | 15 µM | inactive | Active | Active | –
CC(=O)c1ccc(-c2ccc(-c3nc4cnccn4c3NC(C)(C)C)cc2)cc1 | – | – | – | – | – | Active | Active | –
CC(C)(C)Nc1c(-c2ccc(Cl)cc2)nc2ccc(-c3ccc(F)cc3)cn12 | > 30% | inactive | Dose-dependent effect | 8 µM | inactive | Active | Active | –
COc1ccc(-c2nc3ccc(-c4ccccc4)cn3c2NC(C)(C)C)cc1 | > 30% | inactive | Dose-dependent effect | 13 µM | inactive | Active | Active | –
COc1ccc(-c2ccc3nc(-c4ccc(Cl)cc4)c(NC(C)(C)C)n3c2)cc1 | > 30% | inactive | Dose-dependent effect | 10 µM | inactive | Active | Active | –
COc1ccc(-c2ccc(-c3nc4ccccn4c3NC(C)(C)C)cc2)cc1 | – | – | – | – | – | inactive | inactive | –
COc1cc([C@@H]2c3cc4c(cc3[C@@H](O[C@@H]3O[C@@H]5CO[C@@H](C)O[C@H]5[C@H](O)[C@H]3O)[C@H]3COC(=O)[C@H]23)OCO4)cc(OC)c1O [ETOPOSIDE] | – | – | – | 55 µM | Active | – | – | inhibition [14]: Active; CC50 at 48 h [15]: 75 µM
CC(C)(C)Nc1c(-c2ccc(-c3ccccc3)cc2)nc2cnccn12 | – | – | – | – | – | Active | Active | –

— ChEMBL document CHEMBL3576852, “Switch in Site of Inhibition: A Strategy for Structure-Based Discovery of Human Topoisomerase IIα Catalytic Inhibitors” (ACS Med Chem Lett, 2015)
